Measurements from patent US5541175A, “Cephalosporin antibiotics” (Lucky, Ltd., priority 1993, dated 1996).
Values after ≈ are worked out from the molar mass of the structure shown. Like-named read-outs stand apart in the source and are kept apart here.

Experiments:
Assay in all cases: Minimum inhibitory concentration (agar 2-fold dilution)
Type in all cases: cell-based
[1] = tested on: Klebsiella aerogenes K1 + 1082E; settings: 20 h, read-out: Minimum Inhibitory Concentration
Experimental: (§1) The minimum inhibitory concentration was determined by diluting the test compounds according to 2-fold dilution, suspending them in Muller-Hinton agar medium, inoculating 2 μl of the suspension containing the test strains having 10^7 CFU (Colony Forming Unit) per 1 ml into the medium and then culturing the test strains at 37° C. for 20 hours.

[2] = tested on: Staphylococcus aureus 241; settings: read-out: Minimum Inhibitory Concentration
Experimental: as §1

[3] = tested on: Staphylococcus aureus giorgio; settings: read-out: Minimum Inhibitory Concentration
Experimental: as §1

[4] = tested on: Staphylococcus aureus epidermidis 887E; settings: read-out: Minimum Inhibitory Concentration
Experimental: as §1

[5] = tested on: Escherichia coli TEM9 2639E; settings: TEM92639E, 20 h, read-out: Minimum Inhibitory Concentration
Experimental: as §1

[6] = tested on: Escherichia coli TEM5 3739E; settings: TEM53739E, 20 h, read-out: Minimum Inhibitory Concentration
Experimental: as §1

[7] = tested on: Escherichia coli 10536; settings: read-out: Minimum Inhibitory Concentration
Experimental: as §1

[8] = tested on: Escherichia coli TEM3 3455E; settings: TEM33455E, 20 h, read-out: Minimum Inhibitory Concentration
Experimental: as §1

[9] = tested on: Pseudomonas aeruginosa 10145; settings: read-out: Minimum Inhibitory Concentration
Experimental: as §1

[10] = tested on: Klebsiella aerogenes SHV-1 1976E; settings: SHV11976E
Experimental: as §1

[11] = tested on: Serratia marcescens 1826E; settings: read-out: Minimum Inhibitory Concentration
Experimental: as §1

[12] = tested on: Enterobacter cloacae IND + VE 1194E; settings: read-out: Minimum Inhibitory Concentration
Experimental: as §1

[13] = tested on: Escherichia coli TEM7 3457E; settings: TEM73457E, 20 h, read-out: Minimum Inhibitory Concentration
Experimental: as §1

[14] = tested on: Pseudomonas aeruginosa 1912E; settings: read-out: Minimum Inhibitory Concentration
Experimental: as §1

[15] = tested on: Enterobacter cloacae P99; settings: P99, 20 h, read-out: Minimum Inhibitory Concentration
Experimental: as §1

[16] = tested on: Escherichia coli TEM1 1193E; settings: TEM11193E, 20 h, read-out: Minimum Inhibitory Concentration
Experimental: as §1

[17] = tested on: Streptococcus faecalis 29212A; settings: Enterococcus faecalis, read-out: Minimum Inhibitory Concentration
Experimental: as §1

[18] = tested on: Escherichia coli 3190Y; settings: read-out: Minimum Inhibitory Concentration
Experimental: as §1

[19] = tested on: Escherichia coli 851E; settings: E. coli 851E, Muller-Hinton agar, 37° C., 20 hours
Experimental: as §1

[20] = tested on: Proteus vulgaris 6059A; settings: read-out: Minimum Inhibitory Concentration
Experimental: as §1

[21] = tested on: Acinetobacter calcoaceticus 15473A; settings: read-out: Minimum Inhibitory Concentration
Experimental: as §1

[22] = tested on: Salmonella typhimurium 14028A; settings: Salmonella enterica, read-out: Minimum Inhibitory Concentration
Experimental: as §1

[23] = tested on: Staphylococcus aureus 77; settings: read-out: Minimum Inhibitory Concentration
Experimental: as §1

[24] = tested on: Citrobacter diversus 2046E; settings: Citrobacter koseri, read-out: Minimum Inhibitory Concentration
Experimental: as §1

[25] = tested on: Pseudomonas aeruginosa 6065; settings: read-out: Minimum Inhibitory Concentration
Experimental: as §1

[26] = tested on: Staphylococcus aureus 6538P; settings: read-out: Minimum Inhibitory Concentration
Experimental: as §1

[27] = Staphylococcus aureus, S. aureus 241, Muller-Hinton agar, 37° C., 20 hours
[28] = S. aureus giorgio, Muller-Hinton agar, 37° C., 20 hours
[29] = S. aureus epidermidis 887E, Muller-Hinton agar, 37° C., 20 hours
[30] = Pseudomonas aeruginosa, P. aeruginosa 10145, Muller-Hinton agar, 37° C., 20 hours
[31] = K. aerogenes SHV-1 1976E, Muller-Hinton agar, 37° C., 20 hours
[32] = S. marcescens 1826E, Muller-Hinton agar, 37° C., 20 hours
[33] = E. cloacae IND + VE 1194E, Muller-Hinton agar, 37° C., 20 hours
[34] = P. aeruginosa 1912E, Muller-Hinton agar, 37° C., 20 hours
[35] = S. faecalis 29212A, Muller-Hinton agar, 37° C., 20 hours
[36] = E. coli 3190Y, Muller-Hinton agar, 37° C., 20 hours
[37] = P. vulgaris 6059A, Muller-Hinton agar, 37° C., 20 hours
[38] = A. calcoaceticus 15473A, Muller-Hinton agar, 37° C., 20 hours
[39] = S. typhimurium 14028A, Muller-Hinton agar, 37° C., 20 hours
[40] = Staphylococcus aureus, S. aureus 77, Muller-Hinton agar, 37° C., 20 hours
[41] = C. diversus 2046E, Muller-Hinton agar, 37° C., 20 hours
[42] = Pseudomonas aeruginosa, P. aeruginosa 6065, Muller-Hinton agar, 37° C., 20 hours
[43] = S. aureus 6538P, Muller-Hinton agar, 37° C., 20 hours
[44] = Escherichia coli, E. coli 10536, Muller-Hinton agar, 37° C., 20 hours

Compound: CC(C)(O/N=C(\C(=O)N[C@@H]1C(=O)N2C(C(=O)[O-])=C(C[n+]3ccccc3)CS[C@H]12)c1csc(N)n1)C(=O)O [CAZ, Ceftazidime, reference compound]
- MIC [1]: 0.5 µg/mL (≈ 0.915 µM)
- MIC ([2]; Staphylococcus aureus, 241, 20 h): > 128 µg/mL
- MIC ([3]; 20 h): 4 µg/mL (≈ 7.32 µM)
- MIC ([4]; 20 h): > 128 µg/mL
- MIC [5]: > 128 µg/mL
- MIC [6]: 8 µg/mL (≈ 14.6 µM)
- MIC ([7]; Escherichia coli, 10536, 20 h): 0.13 µg/mL (≈ 0.238 µM)
- MIC [8]: 8 µg/mL (≈ 14.6 µM)
- MIC ([9]; Pseudomonas aeruginosa, 10145, 20 h): 2 µg/mL (≈ 3.66 µM)
- MIC ([10]; 20 h): 0.25 µg/mL (≈ 0.457 µM)
- MIC ([11]; 1826E, 20 h): 0.25 µg/mL (≈ 0.457 µM)
- MIC ([12]; 20 h): 128 µg/mL (≈ 234 µM)
- MIC [13]: 16 µg/mL (≈ 29.3 µM)
- MIC ([14]; 1912E, 20 h): 1 µg/mL (≈ 1.83 µM)
- MIC [15]: 64 µg/mL (≈ 117 µM)
- MIC [16]: 0.25 µg/mL (≈ 0.457 µM)
- MIC ([17]; 29212A, 20 h): > 128 µg/mL
- MIC ([18]; 3190Y, 20 h): 0.063 µg/mL (≈ 0.115 µM)
- MIC [19]: 0.063 µg/mL (≈ 0.115 µM)
- MIC ([20]; 6059A, 20 h): 0.063 µg/mL (≈ 0.115 µM)
- MIC ([21]; 15473A, 20 h): 2 µg/mL (≈ 3.66 µM)
- MIC ([22]; TYPHIMURIUM, 20 h): 0.25 µg/mL (≈ 0.457 µM)
- MIC ([23]; Staphylococcus aureus, 77, 20 h): 32 µg/mL (≈ 58.5 µM)
- MIC ([24]; 2046E, 20 h): 0.5 µg/mL (≈ 0.915 µM)
- MIC ([25]; Pseudomonas aeruginosa, 6065, 20 h): 16 µg/mL (≈ 29.3 µM)
- MIC ([26]; 6538P, 20 h): 16 µg/mL (≈ 29.3 µM)

Compound: Nc1cc(N)[n+](C/C=C/C2=C(C(=O)[O-])N3C(=O)[C@@H](NC(=O)/C(=N\O[C@@H](C(=O)O)c4ccc(O)c(O)c4)c4csc(N)n4)[C@H]3SC2)cn1 [Compound I-1b, 7-[(Z)-2-(2-aminothiazol-4-yl)-2-(α-carboxy-3,4-dihydroxybenzyloxyimino)acetamido]-3-[(E)-3-(4,6-diaminopyrimidinium-1-yl)-1-propen-1-yl]-3-cephem-4-carboxylate]
- MIC [1]: 2 µg/mL (≈ 2.93 µM)
- MIC [2, 27]: 128 µg/mL (≈ 187 µM)
- MIC [3, 28]: 0.5 µg/mL (≈ 0.731 µM)
- MIC [4, 29]: 64 µg/mL (≈ 93.6 µM)
- MIC [5]: 2 µg/mL (≈ 2.93 µM)
- MIC [6]: 2 µg/mL (≈ 2.93 µM)
- MIC ([7]; Escherichia coli, 10536, 20 h): 0.13 µg/mL (≈ 0.19 µM)
- MIC [8]: 0.5 µg/mL (≈ 0.731 µM)
- MIC [9, 30]: 32 µg/mL (≈ 46.8 µM)
- MIC [10, 31]: 1 µg/mL (≈ 1.46 µM)
- MIC [11, 32]: 2 µg/mL (≈ 2.93 µM)
- MIC [12, 33]: 64 µg/mL
- MIC [13]: 0.25 µg/mL (≈ 0.366 µM)
- MIC [14, 34]: 64 µg/mL (≈ 93.6 µM)
- MIC [15]: 128 µg/mL (≈ 187 µM)
- MIC [16]: 0.25 µg/mL (≈ 0.366 µM)
- MIC [17, 35]: 8 µg/mL (≈ 11.7 µM)
- MIC [18, 36]: 0.13 µg/mL (≈ 0.19 µM)
- MIC [19]: 0.13 µg/mL (≈ 0.19 µM)
- MIC [20, 37]: 0.5 µg/mL (≈ 0.731 µM)
- MIC [21, 38]: 4 µg/mL (≈ 5.85 µM)
- MIC [22, 39]: 0.13 µg/mL (≈ 0.19 µM)
- MIC [23, 40]: 2 µg/mL (≈ 2.93 µM)
- MIC [24, 41]: 16 µg/mL (≈ 23.4 µM)
- MIC [25, 42]: 32 µg/mL (≈ 46.8 µM)
- MIC [26, 43]: 0.5 µg/mL (≈ 0.731 µM)

Compound: Nc1cc[n+](C/C=C/C2=C(C(=O)[O-])N3C(=O)[C@@H](NC(=O)/C(=N\O[C@@H](C(=O)O)c4ccc(O)c(O)c4)c4csc(N)n4)[C@H]3SC2)cn1 [Compound I-2b, 7-[(Z)-2-(2-aminothiazol-4-yl)-2-(α-carboxy-3,4-dihydroxybenzyloxyimino)acetamido]-3-[(E)-3-(4-aminopyrimidinium-1-yl)-1-propen-1-yl]-3-cephem-4-carboxylate]
- MIC [1]: 2 µg/mL (≈ 2.99 µM)
- MIC [2, 27]: 128 µg/mL (≈ 191 µM)
- MIC [3, 28]: 0.25 µg/mL (≈ 0.374 µM)
- MIC [4, 29]: 8 µg/mL (≈ 12 µM)
- MIC [5]: 0.5 µg/mL (≈ 0.748 µM)
- MIC [6]: 0.1 µg/mL (≈ 0.15 µM)
- MIC [7, 44]: 0.13 µg/mL (≈ 0.194 µM)
- MIC [8]: 0.25 µg/mL (≈ 0.374 µM)
- MIC [9, 30]: 8 µg/mL (≈ 12 µM)
- MIC [10, 31]: 1 µg/mL (≈ 1.5 µM)
- MIC [11, 32]: 1 µg/mL (≈ 1.5 µM)
- MIC [12, 33]: 16 µg/mL
- MIC [13]: 0.25 µg/mL (≈ 0.374 µM)
- MIC [14, 34]: 8 µg/mL (≈ 12 µM)
- MIC [15]: 32 µg/mL (≈ 47.9 µM)
- MIC [16]: 0.25 µg/mL (≈ 0.374 µM)
- MIC [17, 35]: 4 µg/mL (≈ 5.98 µM)
- MIC [18, 36]: 0.13 µg/mL (≈ 0.194 µM)
- MIC [19]: 0.13 µg/mL (≈ 0.194 µM)
- MIC [20, 37]: 0.5 µg/mL (≈ 0.748 µM)
- MIC [21, 38]: 2 µg/mL (≈ 2.99 µM)
- MIC [22, 39]: 0.25 µg/mL (≈ 0.374 µM)
- MIC [23, 40]: 2 µg/mL (≈ 2.99 µM)
- MIC [24, 41]: 4 µg/mL (≈ 5.98 µM)
- MIC [25, 42]: 64 µg/mL (≈ 95.7 µM)
- MIC [26, 43]: 0.5 µg/mL (≈ 0.748 µM)

Compound: Nc1nc(/C(=N/O[C@@H](C(=O)O)c2ccc(O)c(O)c2)C(=O)N[C@@H]2C(=O)N3C(C(=O)[O-])=C(/C=C/C[n+]4cnc(N)c5c4CCC5)CS[C@H]23)cs1 [Compound I-3b, 7-[(Z)-2-(2-aminothiazol-4-yl)-2-(α-carboxy-3,4-dihydroxybenzyloxyimino)acetamido]-3-[(E)-3-(4-amino-5,6-cyclopentanopyrimidinium-1-yl)-1-propen-1-yl]-3-cephem-4-carboxylate]
- MIC [1]: 1 µg/mL (≈ 1.41 µM)
- MIC [2, 27]: > 128 µg/mL
- MIC [3, 28]: 0.5 µg/mL (≈ 0.705 µM)
- MIC [4, 29]: 64 µg/mL (≈ 90.3 µM)
- MIC [5]: 2 µg/mL (≈ 2.82 µM)
- MIC [6]: 2 µg/mL (≈ 2.82 µM)
- MIC [7, 44]: 0.13 µg/mL (≈ 0.183 µM)
- MIC [8]: 0.5 µg/mL (≈ 0.705 µM)
- MIC [9, 30]: 8 µg/mL (≈ 11.3 µM)
- MIC [10, 31]: 1 µg/mL (≈ 1.41 µM)
- MIC [11, 32]: 4 µg/mL (≈ 5.64 µM)
- MIC [12, 33]: 32 µg/mL
- MIC [13]: 0.5 µg/mL (≈ 0.705 µM)
- MIC [14, 34]: 8 µg/mL (≈ 11.3 µM)
- MIC [15]: 64 µg/mL (≈ 90.3 µM)
- MIC [16]: 0.25 µg/mL (≈ 0.353 µM)
- MIC [17, 35]: 8 µg/mL (≈ 11.3 µM)
- MIC [18, 36]: 0.25 µg/mL (≈ 0.353 µM)
- MIC [19]: 0.25 µg/mL (≈ 0.353 µM)
- MIC [20, 37]: 1 µg/mL (≈ 1.41 µM)
- MIC [21, 38]: 4 µg/mL (≈ 5.64 µM)
- MIC [22, 39]: 0.13 µg/mL (≈ 0.183 µM)
- MIC [23, 40]: 4 µg/mL (≈ 5.64 µM)
- MIC [24, 41]: 4 µg/mL (≈ 5.64 µM)
- MIC [25, 42]: 64 µg/mL (≈ 90.3 µM)
- MIC [26, 43]: 0.5 µg/mL (≈ 0.705 µM)
